These results are taken from PubChem BioAssay AID463206 (Broad Institute, 2010).

Activity calls are given as the source filed them.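 The calls were made as follows: active = caspase luminescence falls with dose and the half-maximal concentration AC50 from the fitted curve is at or below a set limit; inconclusive = flat fit at 30 to 70% signal loss, or invalid fit; inactive = AC50 above the limit, or signal rises instead.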

This assay deals with INS-1E cytokine-induced caspase-3/7, Caspase-Glo luminescence, 48 h. The assay can be described thus: suppression of cytokine-driven beta-cell apoptosis – INS-1E rat cells, luminescence, orthogonal assay for beta-cell apoptosis protection project, dose response (AID 463206).
As to `CCOC(=O)C1=C(c2ccc(OC)cc2)C(=O)c2ccccc2C1=O`, the AC50 (commonly the concentration at which the activity in the assay is half-maximal) was > 26 µM (inactive).

With `Cc1cc(C)n(-c2nc(NC(C)(C)C)nc(NC(C)(C)C)n2)n1`, the AC50 was > 26 µM (inactive). Next, `CCOC(=O)C1=C(CCc2ccccc2)NC(=O)NC1c1ccc2ccccc2c1` (stereo not drawn): > 26 µM (inactive); `Cc1ccc(Nc2c3c(nc4ccccc24)CCC3)cc1`: > 26 µM (inactive). As for `O=C(NCC1COc2ccccc2O1)c1cccc(S(=O)(=O)NCc2ccccc2)c1` (stereo not drawn), the figure is > 12 µM (inactive); as for `CC(C)OCCCNc1ncnc2c1[nH]c1ccc(F)cc12`, > 26 µM (inactive); as for `CCOC(=O)c1cnc(-n2nc(C)cc2C)nc1NNc1nc(-c2ccccc2)cc(-c2ccccc2)n1`, > 26 µM (inactive). Next, `CSc1ccccc1OCc1cc(C(=O)N2CCc3c(Cl)cccc3C2)no1`: > 26 µM (inactive). For `O=S(=O)(c1ccc(F)c(F)c1F)N1CCN(c2ncnc3sccc23)CC1`, the AC50 is > 26 µM (inactive). As for `C=CC[n+]1c(-c2ccc(OCC)cc2)csc1NNC(=O)Nc1ccccc1`, the AC50 is > 26 µM (inactive). As for `CCOC(=O)c1cnc2ccc(OCC)cc2c1N1CCN(c2ccccc2)CC1`, the figure is > 12 µM (inactive). Next, `O=C(/C=C/c1ccc(-c2ccccc2)cc1)NCc1cccnc1`: > 26 µM (inactive); `COc1ccc(-c2nc3ccc(C)cn3c2NCc2ccccc2)cc1SC1CCCCC1`: > 26 µM (inactive); `Cc1ccc(S(=O)(=O)/N=C2/C=C(Sc3ncn[nH]3)C(=O)c3ccccc32)cc1`: > 26 µM (inactive). Next, `C=C[C@H](CC(C)C)N(Cc1ccccc1)S(=O)(=O)N(Cc1ccccc1)[C@@H](C=C)CC(C)C`: > 26 µM (inactive). Turning to `CC1Sc2ccc(S(=O)(=O)N3CCC(C(=O)Nc4ccc(Cl)cc4)CC3)cc2NC1=O` (stereo not drawn), the AC50 is > 26 µM (inactive).

Turning to `COC(=O)C[C@]1(C(=O)OC)CN(C#N)N(c2ccc(Cl)cc2)C12c1ccccc1-c1ccccc12`, the AC50 was > 26 µM (inactive). As for `Cc1cc(-c2ccccc2)n(-c2cc(N/N=C/c3ccccc3O)ncn2)n1`, the figure is > 26 µM (inactive); as for `Cc1[nH]c(N=Nc2ccccc2)nc1N=Nc1ccccc1`, > 26 µM (inactive). `O=C(NCc1cccnc1)/C(=C/c1ccc(-c2ccc(Cl)cc2)o1)S(=O)(=O)c1ccccc1`: the AC50 was > 26 µM (inactive).

In the case of `CC1=CC(=O)C(C(C)C)=C/C1=N/OS(=O)(=O)c1ccccc1`, the AC50 was > 26 µM (inactive). Next, `COc1ccc(OC)c(NC(=O)c2nc(S(=O)(=O)Cc3ccccc3)ncc2Cl)c1`: > 26 µM (inactive); `CC(C)Nc1ccc(Nc2ccccc2)cc1`: > 26 µM (inactive); `O=C(Nc1ccc(Cl)cc1)Nc1csc([N+](=O)[O-])c1`: > 26 µM (inactive). As for `Cc1cccnc1CN1CCN(C(=O)c2cc(COc3ccc4ncccc4c3)on2)CC1`, the figure is > 26 µM (inactive); as for `Cc1ccc(C)c(NS(=O)(=O)c2ccc(OCC(=O)NCc3cccnc3)cc2)c1`, > 26 µM (inactive); as for `Cc1ccc(S(=O)(=O)/N=C2\C=C(Nc3cccc(C(=O)O)c3)C(=O)c3ccccc32)c(C)c1`, > 26 µM (inactive). Consider `CCc1ccc2[nH]c(=O)c(C3C(C#N)=C(N)Oc4c3ccc3cccnc43)cc2c1` (stereo not drawn), for which the AC50 was > 26 µM (inactive).

Regarding `CC1=CC2/C=C(\C)CCC(O)C(O)/C=C/C(=O)C23C(=O)NC(CC(C)C)C3C1C` (stereo not drawn), the AC50 was > 26 µM (inactive).

`Cc1cccc2cc(-c3ccccc3)c(-c3ccccc3)c[n+]12`: the AC50 was > 26 µM (inactive).

With `CC1C/C(=C/c2ccncc2)C(=O)/C(=C/c2ccncc2)C1` (stereo not drawn), the AC50 was > 26 µM (inactive). On to `CCCOC(=O)/C(C(N)=NCc1ccccc1)=C(\O)OCCC`, for which the AC50 is > 26 µM (inactive).

With `O=S(=O)(C/C(=C/CO)S(=O)(=O)c1ccccc1)c1ccccc1`, the AC50 was 4.21 µM. For `O=C(C[C@@H]1C/C=C/CC[C@H](Cc2ccc(F)cc2)C(=O)OC[C@@H](Cc2ccccc2)NC1=O)N[C@H](CO)Cc1ccccc1`, the AC50 is > 26 µM (inactive). Next, `COCc1ccc(O)c2ncccc12`: > 26 µM (inactive); `O=C(OCCOc1cccc(Cl)c1)c1cc(S(=O)(=O)N2CCCCC2)ccc1N1CCOCC1`: > 26 µM (inactive); `O=C1C(=O)c2c(C(=O)c3ccccc3)coc2-c2ccccc21`: > 26 µM (inactive).

Consider `COCC1CCCCN1C(=O)c1cc(COc2ccc3ncccc3c2)on1` (stereo not drawn), for which the AC50 is > 26 µM (inactive). With `Cc1cc(N2CCOCC2)n2ncc(-c3ccccc3)c2n1`, the AC50 is > 26 µM (inactive). As for `CC1CCC(C(C)C)C(OC(=O)C[n+]2cc(-c3ccc(Cl)cc3)n3c2CCCCC3)C1` (stereo not drawn), the figure is > 26 µM (inactive); as for `COc1cccc(C(=O)N/N=C(/c2ccccc2)c2ccccn2)c1`, > 26 µM (inactive); as for `C1=C(CCNc2ncnc3c2[nH]c2ccccc23)CCCC1`, > 26 µM (inactive). Turning to `COC(=O)c1ccccc1NC1=C/C(=N\S(=O)(=O)c2ccc(C(=O)O)cc2)c2ccccc2C1=O`, the AC50 was > 26 µM (inactive). Next, `CC1CC(=O)N(c2ccc(Br)cc2)C(=O)C1`: > 26 µM (inactive); `O=C(Nc1ccc2nc3n(c(=O)c2c1)CCCCC3)c1c(F)ccc([N+](=O)[O-])c1F`: > 26 µM (inactive). For the compound `O=C(OCn1ncc(Br)c(Br)c1=O)c1ccccc1Cl`, the AC50 was > 26 µM (inactive). As for `Cc1ccc(-n2ncc3c2CCCC3NC(=O)c2ocnc2C)cc1C` (stereo not drawn), the AC50 was > 26 µM (inactive). Next, `COc1ccc(O)c(/C=N/NC(=S)Nc2cccnc2)c1`: > 26 µM (inactive); `CCC1(OC(=O)CN)C(=O)OCc2c1cc1n(c2=O)Cc2cc3ccccc3nc2-1` (stereo not drawn): 0.33 µM; `C=CCn1c(=NC(=O)c2cc(-c3cccs3)nc3ccccc23)sc2cc(S(N)(=O)=O)ccc21`: > 26 µM (inactive).

Regarding `CCN1CCN(C2=C(NS(=O)(=O)c3ccccc3)C(=O)c3ccccc3C2=O)CC1`, the AC50 is > 26 µM (inactive).

`CC[C@@H]1C/C=C\Cc2ccccc2[C@H](C(=O)C[C@@H](O)CC(C)=O)OC1=O`: the AC50 was > 26 µM (inactive). As for `CCS(=O)(=O)c1ncc(Cl)c(C(=O)Nc2ccc(S(=O)(=O)N(C)c3ccccc3)cc2)n1`, the AC50 was > 26 µM (inactive). For the compound `Cc1nnsc1-c1onc(C)c1C(=O)Nc1cc(Cl)cc(Cl)c1`, the AC50 was > 26 µM (inactive). For `COc1ccc(/C=C2\CN(Cc3ccccc3)C/C(=C\c3ccc(OC)c(O)c3)C2=O)cc1O`, the AC50 was > 26 µM (inactive). As for `FC(F)(F)c1ccc(CN2C[C@@H]3C(c4ccc(C(F)(F)F)cc4)C4(c5cccnc5)CC3(C4)[C@H]2c2ccccc2)cc1` (stereo partly drawn), the figure is > 26 µM (inactive); as for `NC(=O)c1ccccc1OC1CCC1`, > 26 µM (inactive); as for `O=C(/C=C/NNC(=O)c1ccccc1)c1ccc([N+](=O)[O-])cc1`, > 26 µM (inactive).

Take `CC(=O)c1ccc(NC(=S)NCc2cccnc2)cc1`: the AC50 is > 26 µM (inactive). As for `CN1N=C(C(C)(C)C)CSC1=Nc1ccccc1`, the figure is > 26 µM (inactive). As for `COc1ccccc1N1C(C)=CC(=C(C#N)c2nc3ccccc3s2)C=C1C`, the figure is > 26 µM (inactive); as for `O=C(c1ccccc1)C(CCC(CN1CCOCC1)C(=O)c1ccccc1)CN1CCOCC1` (stereo not drawn), > 26 µM (inactive). As for `Cc1sc2ncnc(N3CCN(CCOc4ccc(Cl)cc4)CC3)c2c1C`, the figure is > 26 µM (inactive); as for `CCCSc1nsc(NC(=O)Nc2ccc(F)cc2F)n1`, > 26 µM (inactive); as for `CCN1CCN(CCCNC(=O)c2ccc3c(c2)NC(=O)/C(=C\c2cccc(C)c2)S3)CC1`, 10.3 µM. Take `COc1cc(/C=N/N=C(N)N)ccc1OCc1ccc(Cl)cc1`: the AC50 is > 26 µM (inactive).

Turning to `Cc1ccc2nc(NC(=O)/C=C/c3ccc4c(c3)OCO4)sc2c1`, the AC50 was > 26 µM (inactive). As for `O=[N+]([O-])c1ccc(N2CCN(CCOc3nonc3-c3ccccc3)CC2)c(Cl)c1`, the AC50 was > 26 µM (inactive).

With `N#CC1=C(N)Oc2c(ccc3cccnc23)C1c1ccccc1` (stereo not drawn), the AC50 is > 12 µM (inactive). As for `COc1ccc(CCNc2ncnc3sccc23)cc1OC`, the figure is > 26 µM (inactive); as for `CC(=O)c1c(C)[nH]c(C(=O)OCCCCN2C(=O)c3ccccc3C2=O)c1C`, > 26 µM (inactive); as for `COC(=O)C1=C(c2ccc(OCc3ccccc3)cc2)C[C@@H]2CC[C@H]1N2C(=O)NC1CCN(Cc2ccccc2)CC1`, > 26 µM (inactive).

Turning to `COc1cccc(/C=N/Nc2ncc(C(F)(F)F)cc2Cl)c1O`, the AC50 was > 26 µM (inactive). Next, `CCOc1ccc(S(=O)(=O)N(C)c2ccc(OCC(=O)Nc3nc4ccccc4s3)cc2)cc1`: > 26 µM (inactive). As for `COc1ccc(CC(=O)Nc2cccc(S(=O)(=O)N3CCCCCC3)c2)cc1OC`, the figure is > 26 µM (inactive); as for `CNC[C@H](Cc1ccccc1)NC[C@@H](Cc1cccc2ccccc12)NCCc1ccc(C)cc1`, > 26 µM (inactive); as for `CC(Oc1ccc(Cl)cc1Cl)c1nc(-c2ccc(NC(=O)c3cccnc3)cc2)no1` (stereo not drawn), > 26 µM (inactive). As for `CC(=O)Oc1c(C)cc(Cl)cc1C(=O)Nc1ccc([N+](=O)[O-])cc1Cl`, the figure is > 26 µM (inactive); as for `COC(=O)[C@@H](Cc1ccccc1)N(Cc1ccccc1)S(=O)(=O)N(Cc1ccccc1)[C@H](Cc1ccccc1)C(=O)OC`, > 26 µM (inactive). Take `C1CCC(C(CC2CCCCN2)C2CCCCC2)CC1` (stereo not drawn): the AC50 was > 26 µM (inactive). Next, `CC1(C)Cc2c(c(N3CCOCC3)nc3sc4c(NN)ncnc4c23)CS1`: > 26 µM (inactive); `O=S(=O)(c1ccc(NC(=S)NCc2cccnc2)cc1)N1CCCCC1`: > 26 µM (inactive); `O=C(c1cc2sccc2n1Cc1ccc(F)cc1)N1CCN(c2nc3ccccc3s2)CC1`: > 26 µM (inactive).
